Measured values: PMC6274827 (2018)

Key:
[1] = tested on: Tel22 (DNA, G4) AGGGTTAGGGTTAGGGTTAGGG; test: UV-Vis titration, Direct Fit; settings: 5 mM K+, 95 mM Li+; 10 mM lithium cacodylate, pH 7.2; equivalent independent sites assumed; per site
[2] = tested on: F21D (DNA, G4) GGGTTAGGGTTAGGGTTAGGG; test: FRET melting; settings: 5 mM K+, 95 mM Li+, 10 mM lithium cacodylate, pH 7.2, 0.2 µM F21D

| SMILES | Ka [1] | ΔTm ([2]; 20 eq. compound, weak stabilization up to 8 eq.) | ΔTm ([2]; 7.5 eq. compound) |
| --- | --- | --- | --- |
| NCCCNCCCCNCCCNC(=O)c1ccc(-c2c3nc(c(-c4ccc(C(=O)NCCCNCCCCNCCCN)cc4)c4ccc([n-]4)c(-c4ccc(C(=O)NCCCNCCCCNCCCN)cc4)c4nc(c(-c5ccc(C(=O)NCCCNCCCCNCCCN)cc5)c5ccc2[n-]5)C=C4)C=C3)cc1.O.[Zn+2] | (1.4 ± 0.7) × 10^7 M^-1 | 33 ± 2 °C |  |
| NCCCNCCCCNCCCNC(=O)c1ccc(-c2c3nc(c(-c4ccc(C(=O)NCCCNCCCCNCCCN)cc4)c4ccc([nH]4)c(-c4ccc(C(=O)NCCCNCCCCNCCCN)cc4)c4nc(c(-c5ccc(C(=O)NCCCNCCCCNCCCN)cc5)c5ccc2[nH]5)C=C4)C=C3)cc1 | (4.7 ± 0.7) × 10^6 M^-1 |  | 36 ± 2 °C |
